Test results as given in patent US20100168150A1, “Camptothecin Analogue Compounds, a Process for Their Preparation and Pharmaceutical Compositions Containing Them” (Les Laboratoires Servier, priority 2005, published 2010).
Counter-ions that a name gives are not always drawn.

Key:
[1] = test system: murine leukaemia L1210; experiment: In vitro cytotoxicity, Microculture Tetrazolium Assay, L1210; assay type: cell-based; settings: L1210 cells, 48 hours exposure, inhibition of proliferation
Procedure: (§1) The murine leukaemia L1210 and the human colon carcinomas HCT116 and HT29 were used in vitro. The cells are cultured in RPMI 1640 complete culture medium containing 10% foetal calf serum, 2 mM glutamine, 50 units/ml of penicillin, 50 μg/ml of streptomycin and 10 mM Hepes, pH=7.4. The cells are distributed on microplates and are exposed to the cytotoxic compounds for 4 doubling times, that is to say 48 hours (L1210) or 96 hours (HCT116 and HT29). The number of viable cells is then quantified by a colorimetric assay, the Microculture Tetrazolium Assay (J. Carmichael et al., Cancer Res.; 47, 936-942, (1987)). The results are expressed in terms of the IC50 (the concentration of cytotoxic agent which inhibits proliferation of the treated cells by 50%).

[2] = test system: HCT116; experiment: In vivo activity with respect to HCT116; settings: compared with non-esterified homologue (compound of Preparation 2)
[3] = test system: nude mice; experiment: In vivo toxicity, maximum tolerated dose; settings: i.v. once per week for 3 weeks, compared with compound of Preparation 2
Procedure: (§2) The compounds are formulated in a Tween/water mixture and administered by the intravenous (i.v.) route (administration over three weeks at the rate of once per week, the injection volume being 0.2 ml/mouse with increasing doses of compounds of 6.25, 12.5, 25 and 50 mg/kg) to nude mice (bab/c supplied by Iffa Credo) weighing about 20 g. The maximum tolerated dose (MTD) is the largest dose causing neither death nor a weight loss of more than 20%.

[4] = In vivo toxicity, maximum tolerated dose; settings: nude (bab/c), mouse, in vivo; nude mice, intravenous administration once per week for 3 weeks; largest dose causing neither death nor weight loss of more than 20%
Procedure: as §2

[5] = test system: human colon carcinoma HCT116; experiment: In vitro cytotoxicity, Microculture Tetrazolium Assay, HCT116; assay type: cell-based; settings: HCT116 cells, 96 hours exposure, inhibition of proliferation
Procedure: as §1

[6] = test system: human colon carcinoma HT29; experiment: In vitro cytotoxicity, Microculture Tetrazolium Assay, HT29; assay type: cell-based; settings: HT29 cells, 96 hours exposure, inhibition of proliferation
Procedure: as §1

| Compound | IC50 ([1]; Mus musculus) | IC50 ([5]; Homo sapiens, HCT-116) | IC50 ([6]; Homo sapiens, HT-29) | further results |
| --- | --- | --- | --- | --- |
| CCC1(OC(=O)CCN2CCCCC2)C(=O)Cc2c1cc1n(c2=O)Cc2c-1nc1cc3c(cc1c2C)OCO3 (stereo not drawn) [Example 1, 7-Ethyl-2,3-methylenedioxy-13-methyl-8,10-dioxo-8,9,10,12-tetrahydro-7H-cyclopenta[6,7]indolizino[1,2-b]quinolin-7-yl 3-piperidinopropanoate hydrochloride] | 4.2 nM | – | – | – |
| CCC1(OC(=O)CCN2CCCCC2)C(=O)Cc2c1cc1n(c2=O)Cc2c-1nc1cc3c(cc1c2C1CCC1)OCO3.Cl (stereo not drawn) [Example 2, 7-Ethyl-2,3-methylenedioxy-13-cyclobutyl-8,10-dioxo-8,9,10,12-tetrahydro-7H-cyclopenta[6,7]indolizino[1,2-b]quinolin-7-yl 3-piperidinopropanoate hydrochloride] | – | 1.5 nM | 3.7 nM | in vivo activity with respect to HCT116 compared with compound of Preparation 2 [2]: same in vivo activity; toxicity relative to the non-esterified homologue (compound of Preparation 2) [3]: two times less toxic; MTD at 3 weeks [4]: 25 mg/kg |
| CCC1(OC(=O)CCN2CC[C@H]3CCCC[C@@H]3C2)C(=O)Cc2c1cc1n(c2=O)Cc2c-1nc1cc3c(cc1c2C1CCC1)OCO3 (stereo partly drawn) [Example 23, 7-Ethyl-2,3-methylenedioxy-13-cyclobutyl-8,10-dioxo-8,9,10,12-tetrahydro-7H-cyclopenta[6,7]indolizino[1,2-b]quinolin-7-yl 3-[(4aR,8aS)-octahydroisoquinolin-2(1H)-yl]propanoate hydrochloride] | 7.3 nM | 1.1 nM | 2.4 nM | – |
| CCC1(OC(=O)CCN2CCc3cc(OC)c(OC)cc3C2)C(=O)Cc2c1cc1n(c2=O)Cc2c-1nc1cc3c(cc1c2C1CCC1)OCO3 (stereo not drawn) [Example 24, 7-Ethyl-2,3-methylenedioxy-13-cyclobutyl-8,10-dioxo-8,9,10,12-tetrahydro-7H-cyclopenta[6,7]indolizino[1,2-b]quinolin-7-yl 3-[(6,7-dimethoxy-3,4-dihydroisoquinolin-2(1H)-yl]propanoate hydrochloride] | – | – | – | IC50 [1]: 7.9 nM; IC50 [5]: 0.7 nM; IC50 [6]: 2.6 nM |
